This note sets out measurements from patent US10364238B2, “N-((het) arylmethyl)-heteroaryl-carboxamides compounds as plasma kallikrein inhibitors” (KALVISTA PHARMACEUTICALS LIMITED, priority 2014, dated 2019).

For orientation: inhibition means the drop in the measured response relative to a control, in per cent. A higher inhibition goes with a response far below the control. As a reminder, the IC50 is the concentration needed to halve the response being measured.

Common to all, as to type: biochemical
The target in one assay is Human FXIa (Homo sapiens (Human), UniProt P03951). Nature of the assay: Determination of the % inhibition for FXIa. The following applies: 40 μM test compound, 25° C., substrate Z-Gly-Pro-Arg-AFC. On the procedure:
Determination of the % Inhibition for FXIa
Human FXIa (Enzyme Research Laboratories) was incubated at 25° C. with the fluorogenic substrate Z-Gly-Pro-Arg-AFC and 40 μM of the test compound. Residual enzyme activity (initial rate of reaction) was determined by measuring the change in […].

A further assay addresses Human KLK1 (Homo sapiens (Human), UniProt P06870). In words: Determination of the IC50 for KLK1. The settings on record: 25° C., fluorogenic substrate H-DVal-Leu-Arg-AFC. The method, then:
Determination of the IC50 for KLK1
Human KLK1 (Callbiochem) was incubated at 25° C. with the fluorogenic substrate H-DVal-Leu-Arg-AFC and various concentrations of the test compound. Residual enzyme activity (initial rate of reaction) was determined by measuring the change in […] at 410 nm and the IC50 value for the test compound was determined.

Another assay concerns the target Human plasma kallikrein (Homo sapiens (Human), UniProt P03952). In words: Determination of the IC50 for plasma kallikrein. The following applies: 25° C., fluorogenic substrate H-DPro-Phe-Arg-AFC; read-out: IC50 (human PKaI). The method, then: Determination of the IC50 for Plasma Kallikrein
Human plasma kallikrein (Protogen) was incubated at 25° C. with the fluorogenic substrate H-DPro-Phe-Arg-AFC and various concentrations of the test compound. Residual enzyme activity (initial rate of reaction) was determined by measuring the change in […] at 410 nm and the IC50 value for the test compound was determined.

Each structure is given as a SMILES string.

Human FXIa, sequence (P03951 388-625): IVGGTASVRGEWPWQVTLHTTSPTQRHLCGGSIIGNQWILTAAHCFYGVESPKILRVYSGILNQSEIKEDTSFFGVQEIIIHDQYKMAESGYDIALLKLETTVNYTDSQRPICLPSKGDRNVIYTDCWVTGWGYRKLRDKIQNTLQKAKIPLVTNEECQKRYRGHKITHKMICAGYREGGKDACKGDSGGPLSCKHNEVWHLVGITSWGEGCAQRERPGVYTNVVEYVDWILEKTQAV
Human FXIa, sequence (P03951 19-387 partner): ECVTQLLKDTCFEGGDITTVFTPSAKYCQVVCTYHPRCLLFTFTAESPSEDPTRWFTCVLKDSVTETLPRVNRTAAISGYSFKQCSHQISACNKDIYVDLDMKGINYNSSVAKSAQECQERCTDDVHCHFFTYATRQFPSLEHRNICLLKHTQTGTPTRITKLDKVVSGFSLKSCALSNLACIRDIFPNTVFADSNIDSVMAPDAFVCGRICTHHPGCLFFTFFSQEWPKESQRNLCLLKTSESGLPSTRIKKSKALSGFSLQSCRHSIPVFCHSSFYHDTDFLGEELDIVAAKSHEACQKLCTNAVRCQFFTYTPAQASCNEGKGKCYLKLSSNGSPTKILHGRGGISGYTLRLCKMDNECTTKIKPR
Human plasma kallikrein, sequence (P03952 391-638): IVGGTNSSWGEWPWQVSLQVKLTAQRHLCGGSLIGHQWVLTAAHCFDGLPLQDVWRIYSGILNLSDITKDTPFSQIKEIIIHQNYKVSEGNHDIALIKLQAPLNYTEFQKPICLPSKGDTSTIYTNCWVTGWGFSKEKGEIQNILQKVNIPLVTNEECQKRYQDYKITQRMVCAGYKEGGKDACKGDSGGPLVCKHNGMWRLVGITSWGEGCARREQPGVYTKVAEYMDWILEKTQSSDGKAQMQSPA
Human plasma kallikrein, sequence (P03952 20-390 partner): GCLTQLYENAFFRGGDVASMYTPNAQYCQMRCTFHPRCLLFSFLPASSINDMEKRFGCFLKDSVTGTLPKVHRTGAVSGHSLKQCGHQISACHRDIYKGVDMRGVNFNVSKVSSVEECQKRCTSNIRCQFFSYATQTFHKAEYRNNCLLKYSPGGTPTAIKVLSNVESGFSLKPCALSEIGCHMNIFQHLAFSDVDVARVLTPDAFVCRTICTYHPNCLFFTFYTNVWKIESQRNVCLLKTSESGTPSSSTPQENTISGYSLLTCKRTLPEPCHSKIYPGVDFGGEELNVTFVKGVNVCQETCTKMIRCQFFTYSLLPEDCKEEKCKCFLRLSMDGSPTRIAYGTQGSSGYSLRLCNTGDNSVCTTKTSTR
Human KLK1, sequence (P06870 25-262): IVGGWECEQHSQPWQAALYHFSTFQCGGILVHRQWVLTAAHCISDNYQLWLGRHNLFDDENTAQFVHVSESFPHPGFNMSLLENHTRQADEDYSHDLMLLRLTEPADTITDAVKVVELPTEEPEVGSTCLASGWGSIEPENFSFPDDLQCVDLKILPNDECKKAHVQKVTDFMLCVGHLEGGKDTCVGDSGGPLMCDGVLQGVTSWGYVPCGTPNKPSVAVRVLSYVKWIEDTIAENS

At Human FXIa, `COc1cccc(CNC(=O)c2cn(Cc3ccc(Cn4ccccc4=O)cc3)c(C)n2)c1F` [Example 121, N-[(2-fluoro-3-methoxyphenyl)methyl]-2-methyl-1-({4-[(2-oxopyridin-1-yl)methyl]phenyl}methyl)imidazole-4-carboxamide] had an inhibition at 40 µM of 0%. The figures for the 50% inhibitory concentration (IC50) against Human KLK1 and on Human plasma kallikrein were above 10000 nM and 43.9 nM, respectively.

`COc1cccc(CNC(=O)c2cn(Cc3ccc(Cn4ccccc4=O)cc3)nc2N(C)C)c1F` [Example 59, 3-(dimethylamino)-N-[(2-fluoro-3-methoxyphenyl)methyl]-1-({4-[(2-oxopyridin-1-yl)methyl]phenyl}methyl)pyrazole-4-carboxamide]: the inhibition at 40 µM at Human FXIa turned out to be 0%. Further, the values for the half-maximal inhibitory concentration (IC50) on Human KLK1 and at Human plasma kallikrein were above 10000 nM and 73.4 nM, respectively.

Turning to `COCc1nn(Cc2ccc(Cn3ccccc3=O)cc2)cc1C(=O)NCc1cc(OC)ccc1F` [Example 64, N-[(2-fluoro-5-methoxyphenyl)methyl]-3-(methoxymethyl)-1-({4-[(2-oxopyridin-1-yl)methyl]phenyl}methyl)pyrazole-4-carboxamide], at Human FXIa, the inhibition at 40 µM was 0%. In addition, the IC50 on Human KLK1 was above 10000 nM; on Human plasma kallikrein, 35.2 nM.

For `COCc1nn(Cc2ccc(Cn3ccccc3=O)cc2)cc1C(=O)NCc1nc(OC)ccc1F` [Example 42, N-[(3-fluoro-6-methoxypyridin-2-yl)methyl]-3-(methoxymethyl)-1-({4-[(2-oxopyridin-1-yl)methyl]phenyl}methyl)pyrazole-4-carboxamide], the inhibition at 40 µM on Human FXIa was 1%. Also, the concentration for half-maximal inhibition (IC50) was above 10000 nM at Human KLK1 and 831 nM on Human plasma kallikrein.

In turn, `COCc1nn(Cc2ccc(Cn3ccccc3=O)cc2)cc1C(=O)NCc1cc(OC)cc(OC)c1` [Example 1, N-(3,5-Dimethoxybenzyl)-3-(methoxymethyl)-1-(4-((2-oxopyridin-1(2H)-yl)methyl)benzyl)-1H-pyrazole-4-carboxamide] gave an inhibition at 40 µM on Human FXIa of 0%. For the same compound, the figures for the IC50 at Human KLK1 and at Human plasma kallikrein were above 10000 nM and 698 nM, respectively.

`COCc1nn(Cc2ccc(Cn3ccccc3=O)cc2)cc1C(=O)NCc1ccccc1F` [Example 62, N-[(2-fluorophenyl)methyl]-3-(methoxymethyl)-1-({4-[(2-oxopyridin-1-yl)methyl]phenyl}methyl)pyrazole-4-carboxamide]: the inhibition at 40 µM against Human FXIa stood at 0%. Besides, the values for the IC50 against Human KLK1 and at Human plasma kallikrein were above 10000 nM and 572 nM, respectively.

As to `COCc1nn(Cc2ccc(Cn3ccccc3=O)cc2)cc1C(=O)NCc1cccnc1C(F)(F)F` [Example 36, 3-(methoxymethyl)-1-({4-[(2-oxopyridin-1-yl)methyl]phenyl}methyl)-N-{[2-(trifluoromethyl)pyridin-3-yl]methyl}pyrazole-4-carboxamide], on Human FXIa, the inhibition at 40 µM was determined as 0%. The IC50 was above 10000 nM against Human KLK1 and 4170 nM on Human plasma kallikrein.

In turn, `COc1cccc(CNC(=O)c2cn(Cc3ccc(N4CCCC4)nc3)nc2C(F)(F)F)c1F` [Example 126, N-[(2-fluoro-3-methoxyphenyl)methyl]-1-{[6-(pyrrolidin-1-yl)pyridin-3-yl]methyl}-3-(trifluoromethyl)pyrazole-4-carboxamide] showed an inhibition at 40 µM against Human FXIa of 10%. Further, the figures for the IC50 at Human KLK1 and at Human plasma kallikrein were above 10000 nM and 742 nM, respectively.

In the case of `COCc1nn(Cc2ccc(Cn3ccccc3=O)cc2)cc1C(=O)NCc1ccccc1C(=O)OC` [Example 131, methyl 2-({[3-(methoxymethyl)-1-({4-[(2-oxopyridin-1-yl)methyl]phenyl}methyl)pyrazol-4-yl]formamido}methyl)benzoate], 40 µM produced 0% inhibition at Human FXIa. Besides, the results for the IC50 against Human KLK1 and on Human plasma kallikrein were above 10000 nM and 1510 nM, respectively.

For the compound `NC(=O)c1ccccc1CNC(=O)c1cn(Cc2ccc(Cn3ccccc3=O)cc2)nc1C1CC1` [Example 48, N-[(2-carbamoylphenyl)methyl]-3-cyclopropyl-1-({4-[(2-oxopyridin-1-yl)methyl]phenyl}methyl)pyrazole-4-carboxamide], 40 µM produced 2% inhibition at Human FXIa. Also, the half-inhibitory concentration (IC50) against Human KLK1 is above 10000 nM; on Human plasma kallikrein it was 647 nM.

In turn, `COCc1nn(Cc2ccc(Cn3ccccc3=O)cc2)cc1C(=O)NCc1cccc(OC)n1` [Example 40, 3-(methoxymethyl)-N-[(6-methoxypyridin-2-yl)methyl]-1-({4-[(2-oxopyridin-1-yl)methyl]phenyl}methyl)pyrazole-4-carboxamide] came in with an inhibition at 40 µM at Human FXIa of 1%. Further, the IC50 was above 10000 nM at Human KLK1 and 3700 nM on Human plasma kallikrein.

Compound `Nc1nn(Cc2ccc(Cn3ccccc3=O)cc2)cc1C(=O)NCC1CNc2ccc(Cl)cc2O1` (stereo not drawn) [Example 140, 3-amino-N-[(7-chloro-3,4-dihydro-2H-1,4-benzoxazin-2-yl)methyl]-1-({4-[(2-oxopyridin-1-yl)methyl]phenyl}methyl)pyrazole-4-carboxamide] yielded an inhibition at 40 µM against Human FXIa of 9%. In addition, the values for the 50% inhibitory concentration (IC50) against Human KLK1 and at Human plasma kallikrein were above 40000 nM and 10.6 nM, respectively.

Compound `COCc1nn(Cc2ccc(Cn3ccccc3=O)cc2)cc1C(=O)NCc1c(F)cccc1OC(F)F` [Example 92, N-{[2-(difluoromethoxy)-6-fluorophenyl]methyl}-3-(methoxymethyl)-1-({4-[(2-oxopyridin-1-yl)methyl]phenyl}methyl)pyrazole-4-carboxamide] yielded an inhibition at 40 µM on Human FXIa of 4%. Also, the 50% inhibitory concentration (IC50) on Human KLK1 is above 10000 nM; on Human plasma kallikrein, 16 nM.

With `COCc1nn(Cc2ccc(Cn3ccccc3=O)cc2)cc1C(=O)NCc1ccc(C)cc1F` [Example 65, N-[(2-fluoro-4-methylphenyl)methyl]-3-(methoxymethyl)-1-({4-[(2-oxopyridin-1-yl)methyl]phenyl}methyl)pyrazole-4-carboxamide], at Human FXIa, testing at 40 µM gave an inhibition of 0%. Further, the 50% inhibitory concentration (IC50) against Human KLK1 is above 10000 nM; on Human plasma kallikrein it was 43.3 nM.

With `COc1cccc(CNC(=O)c2cn(Cc3ccc(Cn4ccccc4=O)cc3)nc2N(C)C(C)=O)c1F` [Example 72, N-[(2-fluoro-3-methoxyphenyl)methyl]-3-(N-methylacetamido)-1-({4-[(2-oxopyridin-1-yl)methyl]phenyl}methyl)pyrazole-4-carboxamide], the inhibition at 40 µM against Human FXIa came out at 1%. For the same compound, the figures for the IC50 on Human KLK1 and at Human plasma kallikrein were above 10000 nM and 6610 nM, respectively.

In the case of `COc1cccc(CNC(=O)c2cn(Cc3ccc(Cn4ccccc4=O)cc3)nc2C2CC2)c1F` [Example 52, 3-cyclopropyl-N-[(2-fluoro-3-methoxyphenyl)methyl]-1-({4-[(2-oxopyridin-1-yl)methyl]phenyl}methyl)pyrazole-4-carboxamide], on Human FXIa, the “% Inhibition @ 40 μM (human FXIa)” value was determined as 1%. Also, the IC50 against Human KLK1 is above 40000 nM; on Human plasma kallikrein, 23.3 nM.

At Human FXIa, `COCc1nn(Cc2ccc(Cn3ccccc3=O)cc2)cc1C(=O)NCc1cc(Cl)ccc1C#N` [Example 76, N-[(5-chloro-2-cyanophenyl)methyl]-3-(methoxymethyl)-1-({4-[(2-oxopyridin-1-yl)methyl]phenyl}methyl)pyrazole-4-carboxamide] returned an inhibition at 40 µM of 5%. The concentration for half-maximal inhibition (IC50) against Human KLK1 was above 40000 nM; at Human plasma kallikrein, 28.3 nM.

Turning to `COCc1nn(Cc2ccc(Cn3ccccc3=O)cc2)cc1C(=O)NCc1cccc(OC)c1` [Example 133, 3-(methoxymethyl)-N-[(3-methoxyphenyl)methyl]-1-({4-[(2-oxopyridin-1-yl)methyl]phenyl}methyl)pyrazole-4-carboxamide], the inhibition at 40 µM against Human FXIa came to 1%. For the same compound, the IC50 against Human KLK1 was above 10000 nM; at Human plasma kallikrein it was 90.2 nM.
